Laboratory results taken from article PMC3875168 (Journal of medicinal chemistry, 2013).

Columns and labels:
CD45 = target: T1, CD45 (Homo sapiens, UniProt P08575); assay: Selectivity assay, pNPP substrate; format: biochemical; details: relative to STEP Ki
T1 sequence (P08575 26-1306): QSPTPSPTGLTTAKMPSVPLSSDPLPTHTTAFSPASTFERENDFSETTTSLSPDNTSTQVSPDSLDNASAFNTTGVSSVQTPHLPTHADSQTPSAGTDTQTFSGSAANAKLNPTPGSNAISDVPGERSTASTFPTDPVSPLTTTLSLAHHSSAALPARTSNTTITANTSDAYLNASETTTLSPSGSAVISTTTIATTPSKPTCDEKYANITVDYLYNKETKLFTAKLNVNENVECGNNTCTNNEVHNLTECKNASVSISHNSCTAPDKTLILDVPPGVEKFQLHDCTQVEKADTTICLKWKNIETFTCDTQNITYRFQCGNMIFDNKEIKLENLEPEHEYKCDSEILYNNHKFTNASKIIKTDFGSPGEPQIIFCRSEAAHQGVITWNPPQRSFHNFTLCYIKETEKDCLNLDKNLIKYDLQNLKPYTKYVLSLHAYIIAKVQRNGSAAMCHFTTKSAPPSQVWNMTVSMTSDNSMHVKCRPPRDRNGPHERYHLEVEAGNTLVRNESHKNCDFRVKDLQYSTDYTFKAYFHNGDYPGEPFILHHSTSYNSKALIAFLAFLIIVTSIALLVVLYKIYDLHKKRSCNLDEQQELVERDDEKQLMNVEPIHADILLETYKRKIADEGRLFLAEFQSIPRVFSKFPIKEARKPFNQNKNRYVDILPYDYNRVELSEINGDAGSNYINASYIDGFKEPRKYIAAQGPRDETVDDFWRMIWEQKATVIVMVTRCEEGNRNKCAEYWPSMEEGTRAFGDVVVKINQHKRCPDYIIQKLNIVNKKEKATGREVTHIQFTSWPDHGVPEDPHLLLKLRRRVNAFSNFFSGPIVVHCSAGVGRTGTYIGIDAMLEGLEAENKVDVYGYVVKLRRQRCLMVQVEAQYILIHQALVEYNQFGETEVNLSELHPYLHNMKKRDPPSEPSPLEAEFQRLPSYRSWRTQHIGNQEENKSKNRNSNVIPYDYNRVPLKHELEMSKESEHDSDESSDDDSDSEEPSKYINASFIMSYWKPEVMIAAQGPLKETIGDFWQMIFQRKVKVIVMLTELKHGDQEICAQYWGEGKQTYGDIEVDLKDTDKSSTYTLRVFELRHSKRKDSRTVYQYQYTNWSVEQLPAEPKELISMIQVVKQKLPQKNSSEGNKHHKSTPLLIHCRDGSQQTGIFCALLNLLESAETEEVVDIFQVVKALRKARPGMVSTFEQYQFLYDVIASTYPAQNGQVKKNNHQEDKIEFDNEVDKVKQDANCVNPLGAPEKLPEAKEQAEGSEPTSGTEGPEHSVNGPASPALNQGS

LAR = LAR (Homo sapiens, UniProt P10586); assay: Selectivity assay, pNPP substrate; format: biochemical; details: relative to STEP Ki
[1] = Solubility of the inhibitor; format: physicochemical; details: hydroxyl group at the benzylic position, compared with 12p
BBB PAMPA = format: in vitro ADME; details: PAMPA model system; data in SI
STEP = target: T2, STEP (Rattus norvegicus, UniProt P35234); assay: STEP inhibition in neuronal cultures, Western blotting of phospho-substrates; format: cell-based; details: rat cortical neurons, 0.1, 1 or 10 µM for 1 h
T2 sequence (P35234 53-369 limits assumed): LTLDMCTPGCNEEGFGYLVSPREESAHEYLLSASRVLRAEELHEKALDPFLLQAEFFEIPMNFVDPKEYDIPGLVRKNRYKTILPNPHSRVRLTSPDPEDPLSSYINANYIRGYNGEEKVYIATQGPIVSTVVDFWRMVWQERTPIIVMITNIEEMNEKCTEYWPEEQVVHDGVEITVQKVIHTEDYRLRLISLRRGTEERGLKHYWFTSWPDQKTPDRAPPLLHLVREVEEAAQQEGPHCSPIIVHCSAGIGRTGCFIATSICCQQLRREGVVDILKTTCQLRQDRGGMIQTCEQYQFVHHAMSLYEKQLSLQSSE

MKP5 = target: T3, MKP5 (Homo sapiens, UniProt Q9Y6W6); assay: Selectivity assay, DiFMUP substrate; format: biochemical; details: relative to STEP Ki
T3 sequence (Q9Y6W6 1-482): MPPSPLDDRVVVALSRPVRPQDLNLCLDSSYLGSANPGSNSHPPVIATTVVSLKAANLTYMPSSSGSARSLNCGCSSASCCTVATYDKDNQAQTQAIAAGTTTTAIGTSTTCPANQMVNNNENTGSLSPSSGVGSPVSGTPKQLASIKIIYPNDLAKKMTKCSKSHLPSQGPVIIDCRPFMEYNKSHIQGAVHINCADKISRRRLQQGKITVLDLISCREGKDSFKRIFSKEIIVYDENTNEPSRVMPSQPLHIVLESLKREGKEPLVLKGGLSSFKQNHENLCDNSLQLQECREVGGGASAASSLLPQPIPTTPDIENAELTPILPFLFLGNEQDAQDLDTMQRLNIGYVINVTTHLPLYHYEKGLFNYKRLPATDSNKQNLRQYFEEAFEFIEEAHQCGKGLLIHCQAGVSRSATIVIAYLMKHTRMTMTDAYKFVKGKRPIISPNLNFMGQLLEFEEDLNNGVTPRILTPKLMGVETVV

Chain of LAR (P10586 30-1907): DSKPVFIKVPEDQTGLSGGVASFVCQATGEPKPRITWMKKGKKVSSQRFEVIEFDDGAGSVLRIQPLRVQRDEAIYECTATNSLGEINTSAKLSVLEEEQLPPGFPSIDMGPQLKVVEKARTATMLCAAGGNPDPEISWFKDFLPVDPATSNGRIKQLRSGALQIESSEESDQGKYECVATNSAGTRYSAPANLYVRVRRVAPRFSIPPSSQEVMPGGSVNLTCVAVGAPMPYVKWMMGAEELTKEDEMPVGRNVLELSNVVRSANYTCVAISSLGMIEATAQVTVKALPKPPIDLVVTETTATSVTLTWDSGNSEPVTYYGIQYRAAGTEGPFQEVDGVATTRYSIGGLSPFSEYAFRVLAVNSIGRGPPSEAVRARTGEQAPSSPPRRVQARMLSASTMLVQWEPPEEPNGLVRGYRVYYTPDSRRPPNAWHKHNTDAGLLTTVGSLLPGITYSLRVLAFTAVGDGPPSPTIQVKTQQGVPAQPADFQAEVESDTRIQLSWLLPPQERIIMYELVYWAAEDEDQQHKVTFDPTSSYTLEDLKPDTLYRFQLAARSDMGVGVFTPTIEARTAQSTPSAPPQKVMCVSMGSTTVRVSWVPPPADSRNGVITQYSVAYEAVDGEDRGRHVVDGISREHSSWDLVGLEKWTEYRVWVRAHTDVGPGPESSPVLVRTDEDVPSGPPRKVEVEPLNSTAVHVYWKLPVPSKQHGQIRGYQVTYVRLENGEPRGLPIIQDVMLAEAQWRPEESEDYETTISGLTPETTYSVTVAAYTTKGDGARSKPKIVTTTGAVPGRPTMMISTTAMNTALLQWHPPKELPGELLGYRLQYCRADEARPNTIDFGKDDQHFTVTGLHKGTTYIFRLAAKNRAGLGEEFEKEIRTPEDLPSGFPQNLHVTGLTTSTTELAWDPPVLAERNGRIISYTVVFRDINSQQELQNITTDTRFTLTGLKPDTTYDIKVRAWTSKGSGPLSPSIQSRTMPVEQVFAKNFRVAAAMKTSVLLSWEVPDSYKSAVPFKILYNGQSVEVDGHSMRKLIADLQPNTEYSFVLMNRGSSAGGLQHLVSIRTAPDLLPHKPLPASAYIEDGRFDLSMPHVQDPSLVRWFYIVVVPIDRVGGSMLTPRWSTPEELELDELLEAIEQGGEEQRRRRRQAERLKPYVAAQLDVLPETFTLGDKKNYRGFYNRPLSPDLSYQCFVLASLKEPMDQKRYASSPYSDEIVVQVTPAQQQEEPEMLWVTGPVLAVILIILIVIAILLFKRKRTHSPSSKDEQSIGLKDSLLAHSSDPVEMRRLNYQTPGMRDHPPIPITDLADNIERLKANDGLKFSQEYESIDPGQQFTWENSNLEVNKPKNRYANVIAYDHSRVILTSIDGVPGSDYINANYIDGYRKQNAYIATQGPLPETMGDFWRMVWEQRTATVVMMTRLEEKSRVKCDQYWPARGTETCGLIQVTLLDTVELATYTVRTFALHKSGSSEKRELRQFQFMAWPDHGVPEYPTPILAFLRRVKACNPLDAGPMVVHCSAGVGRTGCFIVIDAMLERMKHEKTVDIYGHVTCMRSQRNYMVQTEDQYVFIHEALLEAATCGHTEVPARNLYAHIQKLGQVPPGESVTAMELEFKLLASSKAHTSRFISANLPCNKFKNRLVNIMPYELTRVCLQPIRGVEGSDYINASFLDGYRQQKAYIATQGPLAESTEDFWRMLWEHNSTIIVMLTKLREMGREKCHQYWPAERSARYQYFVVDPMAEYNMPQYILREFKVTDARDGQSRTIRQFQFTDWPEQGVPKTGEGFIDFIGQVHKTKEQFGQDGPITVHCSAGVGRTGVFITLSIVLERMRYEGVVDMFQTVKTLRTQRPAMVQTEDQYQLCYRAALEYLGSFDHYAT

For `O=P(O)(O)C(F)(F)c1cccc(-c2cccc(C3CCCCC3)c2O)c1` [11m, ((3'-Cyclohexyl-2'-hydroxy-[1,1'-biphenyl]-3-yl)difluoromethyl)phosphonic Acid], the “selectivity CD45” value (CD45) was greater than 25 and the “selectivity LAR” value (LAR) was greater than 45.
In the case of `O=P(O)(O)C(F)(F)c1ccc(-c2cccc(C(O)c3ccc(Cl)c(Cl)c3)c2)cc1` (stereo not shown) [12q, ((3'-((3,4-Dichlorophenyl)(hydroxy)methyl)-[1,1'-biphenyl]-4-yl)difluoromethyl)phosphonic Acid], the “solubility of the inhibitor” value [1] is reported as “increased the solubility”.
For `O=P(O)(O)[C@H](O)c1ccc(-c2cccc([C@@H](O)c3ccc(Cl)c(Cl)c3)c2)cc1` [12s, ((S)-(3'-((R)-(3,4-dichlorophenyl)(hydroxy)methyl)-[1,1'-biphenyl]-4-yl)(hydroxy)methyl)phosphonic Acid], the “ability to passively permeate the blood-brain barrier” value (BBB PAMPA) was “did not possess the ability to passively cross the BBB” and the “phosphorylation levels of STEP substrates GluN2B, Pyk2 and ERK1/2” value (STEP) was “Clear increases in the phosphorylation levels”.
For `O=P(O)(O)[C@H](O)c1ccc(-c2cccc([C@H](O)c3ccc(Cl)c(Cl)c3)c2)cc1` [12t, ((S)-(3'-((S)-(3,4-dichlorophenyl)(hydroxy)methyl)-[1,1'-biphenyl]-4-yl)(hydroxy)methyl)phosphonic Acid], the “selectivity MKP5” value (MKP5) was greater than 65 and the “phosphorylation levels of STEP substrates GluN2B, Pyk2 and ERK1/2” value (STEP) was “more modest effects”.
